Results on 18 molecules are retold here after patent US20090275099A1 (priority 2004, published 2009).

Read-outs that look alike come from different tables or passages of the source.

Experiment [1] has as its system Jurkat cells. Description: early O2− (ROS) response, 1 h. The format is cell-based. As to conditions: for % ROS+: Jurkat cells, 75 μM PK11195, with or without antioxidant pre-incubation; for EC50: 1 h, read-out: ROS EC50 (μM), Jurkat cells. The procedure:
(§1) To detect O2^−, cells are incubated with DHE (10 μM) for 30 min at 37° C. and are analyzed by flow cytometry to measure ethidium fluorescence. Flow analysis of mitochondrial transmembrane potential (ψm) is conducted by labeling cells with DiOC6(3) (20 nM) for 15 min at 37 degrees C. A positive control for disruption of ψm is established using carbonyl cyanide m-chlorophenylhydrazone (CCCP, 50 μM). Caspase activation assays are performed with FAM-VAD-fluoromethylketone. Processing of the substrate is evaluated by flow cytometry.
(§2) Since an early mitochondrial superoxide (O2^−) mediates apoptosis induced by Bz-423, the O2^− response of cells 1 h following incubation with drug was examined, as well as cell death at 24 h, as previously described (see, e.g., Blatt, N. B., et al., 2002 J Clin Invest 110, 1123-1132; incorporated herein by reference in its entirety).

Experiment [2] has as its system Jurkat cells. In words: cell death at 24 h. Format: cell-based. As to conditions: for % Cell death: Jurkat cells, 75 μM PK11195, with or without antioxidant pre-incubation; for EC50: 24 h, read-out: Cell death EC50 (μM), Jurkat cells. The procedure: as §2
For experiment [3], the target named is mitochondrial F1F0-ATPase (Homo sapiens, UniProt P48047). As to conditions: read-out: BMS IC50 (hydr); cited from earlier work.
The target of experiment [4] is T1, mitochondrial F1F0-ATPase (Bos taurus, UniProt P13621+P32876). In words: biochemical. Details: species or system bovine. The note with it: for IC50: read-out: KJ IC50 (syn); for EC50: bovine SMPs.
The target in experiment [5] is T2, F1F0-ATPase, OSCP subunit (UniProt P48047).
T2 sequence (P48047 1-213): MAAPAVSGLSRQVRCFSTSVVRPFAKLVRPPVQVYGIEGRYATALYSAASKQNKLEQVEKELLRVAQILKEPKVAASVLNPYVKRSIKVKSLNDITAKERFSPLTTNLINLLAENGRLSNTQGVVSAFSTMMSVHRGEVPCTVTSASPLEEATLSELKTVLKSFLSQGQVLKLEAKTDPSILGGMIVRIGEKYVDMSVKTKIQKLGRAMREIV
Description: F1F0-ATPase activity in SMPs reconstituted in the presence or absence of the OSCP. The format is biochemical, bovine. Also noted: rows headed: KJ IC50 reconst; not tied in print to the reconstitution assay. The note with it: read-out: KJ IC50 reconst. On the procedure:
(§3) An additional OSCP binding assay was conducted. […] Benzodiazepine derivative compounds that bind the OSCP include, but are not limited to: […]

The target of experiment [6] is T1, mitochondrial F1F0-ATPase. In words: biochemical. Also noted: species or system bovine. The note with it: for IC50: read-out: KJ IC50 (hydr); for EC50: bovine SMPs.
Experiment [7] deals with F1F0-ATPase, OSCP subunit. Description: F1F0-ATPase activity in SMPs reconstituted in the presence or absence of the OSCP. The note with it: without OSCP, at IC50. Format: biochemical, bovine. On the procedure:
as §3

The test system of another experiment is Ramos cells. In words: early O2− (ROS) response, 1 h. Format: cell-based, human. The note with it: for EC50: 1 h, read-out: ROS EC50 (μM), Ramos cells. On the procedure: as §1, §2
Another experiment deals with Ramos B cells. In words: cell death of Ramos B cells, propidium iodide exclusion by flow cytometry, 24 h. The format is cell-based, human. As to conditions: for EC50: 24 h. (Flow cytometry measures light scatter and fluorescence of single cells or particles in a stream.)
The mark [8] stands for this setting: ATPase activity EC50 (μM), Synthesis.
Setting [9] is: ATPase activity EC50 (μM), Hydrolysis.

`O=C(O)c1ccc(-c2c3nc(c(-c4ccc(C(=O)O)cc4)c4ccc([nH]4)c(-c4ccc(C(=O)O)cc4)c4nc(c(-c5ccc(C(=O)O)cc5)c5ccc2[nH]5)C=C4)C=C3)cc1.[Mn+3]` [MnTBAP, Manganese(III) meso-tetrakis(4-benzoic acid)porphyrin]: the “% ROS+” value in the experiment with Jurkat cells [1] worked out at 39.7 ± 2.8%. The “% Cell death” value in the experiment on Jurkat cells [2] is listed as 68.9 ± 1.0%.

As usually defined, the IC50 is the midpoint of a concentration-inhibition curve. `N#Cc1cccc(C(=O)/N=C(\Nc2ccc(Cl)cc2)NC(Cn2ccnc2)c2ccc(Cl)cc2Cl)c1` (racemic) [(+/−)-(1-(2,4-dichlorophenyl)-2-(1H-imidazol-1-yl)ethyl)-3-(4-chlorophenyl)-2-(3-cyanobenzoyl)guanidine]: the IC50 in [3] was 33 nM; in experiment [4], 1500 nM; in experiment [5] it was 200 nM; in experiment [6] it was 100 nM.

Turning to `O=S(=O)(c1ccc(F)cc1)N1Cc2ccccc2N(Cc2c[nH]cn2)C(CCc2ccccc2)C1` (stereo not shown) [4-(4-fluorophenylsulfonyl)1-(1H-imidazol-4-ylmethyl)-2-phenethyl-2,3,4,5-tetrahydro-1H-benzo[e][1,4]diazepine], in [7], the “% activity without OSCP at IC50” value was 79%. The IC50 in [3] was 221 nM; in experiment [4], 7500 nM; in [5], 100 nM; in experiment [6], 150 nM.

Take `COc1ccc(S(=O)(=O)N2Cc3ccccc3N(Cc3c[nH]cn3)C(CCc3ccccc3)C2)cc1` (stereo not shown) [4-(4-methoxyphenylsulfonyl)-1-(1H-imidazol-4-ylmethyl)-2-phenethyl-2,3,4,5-tetrahydrol-1H-benzo[e][1,4]diazepine]: the “% activity without OSCP at IC50” value in experiment [7] amounted to 81%. Besides, the IC50 is 77 nM in experiment [3], 7500 nM in experiment [4], 50 nM in experiment [5] and 75 nM in experiment [6].

What is called EC50 is the concentration giving half of the maximal effect. As to `CN1C(=O)CN=C(c2ccc(Cl)cc2)c2cc(Cl)ccc21` [Compound 4-Cl-Dz, 4-chlorodiazepam], the EC50 is 180 µM in the experiment on Ramos cells; 210 µM in experiment [4] (read-out: ATPase activity EC50 (μM), Synthesis); 230 µM in the experiment with Jurkat cells [1]; greater than 300 µM in the experiment on Jurkat cells [2]; 130 µM in the experiment on Ramos B cells (read-out: Cell death EC50 (μM), Ramos cells); greater than 300 µM in experiment [6] (read-out: ATPase activity EC50 (μM), Hydrolysis). Also, in experiment [6] (80 μM), the “inhibition of mitochondrial ATPase activity” value is recorded as “do not significantly inhibit mitochondrial ATPase activity”.

As for `S=C(Nc1ccc(Cl)cc1)OC(Cn1ccnc1)c1ccc(Cl)cc1Cl` (stereo not shown) [(4-chlorophenyl)-thiocarbamic acid O-[1-(2,4-dichlorophenyl)-2-imidazol-1-yl-ethyl] ester], in [7], the “% activity without OSCP at IC50” value was found to be 70%. Moreover, the half-inhibitory concentration (IC50) in [3] is 430 nM; in [4], 12500 nM; in experiment [5], 300 nM; in experiment [6] it was 750 nM.

Turning to `O=S(=O)(c1ccc(Cl)c(Cl)c1)N1Cc2ccccc2N(Cc2c[nH]cn2)C(CCc2ccccc2)C1` (stereo not shown) [4-(3,4-dichlorophenylsulfonyl)-1-(1H-imidazol-4-ylmethyl)-2-phenethyl-2,3,4,5-tetrahydro-1H-benzo[e][1,4]diazepine], the “% activity without OSCP at IC50” value in experiment [7] is on record as 76%. Further, the concentration for half-maximal inhibition (IC50) was 22 nM in experiment [3], 5000 nM in [4], 50 nM in [5] and 60 nM in experiment [6].

Take `CC(C)(C)c1ccc(S(=O)(=O)N2Cc3ccccc3N(Cc3c[nH]cn3)C(CCc3ccccc3)C2)cc1` (stereo not shown) [4-(4-tertbutylphenylsulfonyl)-1-(1H-imidazol-4-ylmethyl)-2-phenethyl-2,3,4,5-tetrahydro-1H-benzo[e][1,4]diazepine]: the “% activity without OSCP at IC50” value in experiment [7] was 77%. Also, the 50% inhibitory concentration (IC50) in experiment [3] was 8 nM; in [4], 5000 nM; in experiment [5], 20 nM; in experiment [6], 25 nM.

`O=S(=O)(N1Cc2ccccc2N(Cc2c[nH]cn2)C(CCc2ccccc2)C1)C(F)(F)F` (stereo not shown) [4-trifluoromethylsulfonyl-1-(1H-imidazol-4-ylmethyl)-2-phenethyl-2,3,4,5-tetrahydro-1H-benzo[e][1,4]diazepine]: the “% activity without OSCP at IC50” value in experiment [7] is 78%. Besides, the IC50 was 77 nM in experiment [3], 3750 nM in [4], 50 nM in experiment [5] and 50 nM in experiment [6].

With `O=C1CN=C(c2ccccc2Cl)c2cc([N+](=O)[O-])ccc2N1` [Cz, clonazepam], the EC50 is greater than 300 µM in the experiment on Ramos cells (Homo sapiens, Ramos); 120 µM in [4] (setting [8]); greater than 300 µM in the experiment with Jurkat cells [1] (Homo sapiens, Jurkat); greater than 300 µM with Jurkat cells [2] (Homo sapiens, Jurkat); greater than 300 µM in the experiment with Ramos B cells (Homo sapiens, Ramos, read-out: Cell death EC50 (μM), Ramos cells); 240 µM in [6] (setting [9]).

For the molecule `Cc1[nH]cnc1CN1c2ccccc2CN(S(=O)(=O)c2ccc(C(C)(C)C)cc2)CC1CCc1ccccc1` (stereo not shown) [4-(4-tert-butylphenylsulfonyl)-1-(5-methyl-1H-imidazol-4-ylmethyl)-2-phenethyl-2,3,4,5-tetrahydro-1H-benzo[e][1,4]diazepine], in [7], the “% activity without OSCP at IC50” value came out at 80%. In addition, the half-inhibitory concentration (IC50) in experiment [3] was 77 nM; in [4] it was 15000 nM; in [5], 5 nM; in experiment [6], 55 nM.

Take vitamin E: the “% ROS+” value in the experiment on Jurkat cells [1] amounted to 33.9 ± 2.6%. Moreover, the “% Cell death” value with Jurkat cells [2] was determined as 55.9 ± 0.5%.

Take `N#CN/C(=N/c1ccc(Cl)cc1Cl)NC(Cn1ccnc1)c1ccc(Cl)cc1Cl` (stereo not shown) [(1-(2,4-dichlorophenyl)-2-(1H-imidazol-1-yl)ethyl)-3-(2,4-dichlorophenyl)-2-cyanoguanidine]: the 50% inhibitory concentration (IC50) in experiment [3] is 600 nM; in experiment [4], 6000 nM; in experiment [5] it was 4000 nM; in experiment [6] it was greater than 3000 nM.

On to `CN1C(=O)C(Cc2ccc3ccccc3c2)CN(c2ccc(O)cc2)c2cc(Cl)ccc21` (stereo not shown) [GD-423], for which the “response of Ramos cells at 1 hour” value in the experiment with Ramos cells (1 hour, 2% FBS, DHE, FIG. 9) is listed as “causes cell death”. The “cellular death of Ramos cells” value in the experiment on Ramos B cells (24 hours, 2% FBS, FIG. 8) was “causes cell death”.

With `N#CN/C(=N\C(Cn1ccnc1)c1cc(C(F)(F)F)ccc1C(F)(F)F)Nc1ccc(Cl)cc1Cl` (stereo not shown) [(1-(2,5-bis(trifluoromethyl)phenyl)-2-(1H-imidazol-1-yl)ethyl)-3-(2,4-dichlorophenyl)-2-cyanoguanidine], the IC50 in experiment [3] is 710 nM; in experiment [4], 3750 nM; in experiment [5], 250 nM; in [6], 100 nM.

`CN1C(=O)CN=C(c2ccccc2)c2cc(Cl)ccc21` [Dz, diazepam, reference compound]: the EC50 in experiment [4] (setting [8]) was 210 µM; in the experiment on Ramos B cells (Homo sapiens, Ramos, read-out: EC50 (μM), cell death) it was greater than 80 µM; in [6] (setting [9]), greater than 300 µM.

In the case of `O=S(=O)(c1ccc(C(F)(F)F)cc1)N1Cc2ccccc2N(Cc2c[nH]cn2)C(CCc2ccccc2)C1` (stereo not shown) [4-(4-trifluoromethylphenylsulfonyl)-1-(1H-imidazol-4-ylmethyl)-2-phenethyl-2,3,4,5-tetrahydro-1H-benzo[e][1,4]diazepine], in experiment [7], the “% activity without OSCP at IC50” value stood at 80%. In addition, the IC50 in experiment [3] was 100 nM; in [4], 6000 nM; in [5], 25 nM; in [6] it was 50 nM.

Turning to `O=S(=O)(c1ccc(O)cc1)N1Cc2ccccc2N(Cc2cnc[nH]2)C(CCc2ccccc2)C1` (stereo not shown) [4-(4-hydroxphenylsulfonyl)-1-(1H-imidazol-4-ylmethyl)-2-phenethyl-2,3,4,5-tetrahydro-1H-benzo[e][1,4]diazepine], in experiment [7], the “% activity without OSCP at IC50” value was 77%. Moreover, the IC50 in experiment [3] is 667 nM; in experiment [4] it was 20000 nM; in experiment [5], 500 nM; in experiment [6], 750 nM.
